# Assay results published in paper PMC6940896, “Development of a Highly Efficient Hybrid Peptide That Increases Immunomodulatory Activity Via the TLR4-Mediated Nuclear Factor-κB Signaling Pathway” (International Journal of Molecular Sciences, 2019).
# No end group written: not given here.
# Tests used:
# [1] = tested on: splenocyte T lymphocytes; experiment: T lymphocyte subsets in splenocytes by flow cytometry; assay type: in vivo, mouse; details: versus group treated with CTX alone, peptide 10 mg/kg ip days 4-10, n = 12
# Method: The spleen was collected, ground, and passed through 40-μm-mesh cell strainers filled with PBS to harvest the cell suspension. The cells were stained with CD3- PerCP, CD4-APC, and CD8-FITC for 30 min at 4 °C for T lymphocyte measurements. The results were analyzed using a Guava® easyCyte^TM 6-21 system and Guavasoft 3.1.1 software (Millipore, Burlington, MA, USA).
# [2] = tested on: CTX-immunosuppressed Balb/c mice; experiment: Serum cytokine and immunoglobulin ELISA in CTX-immunosuppressed mice; assay type: in vivo, mouse; details: peptide 10 mg/kg ip days 4-10, ELISA, n = 12
# Method: Sigma-Aldrich, St. Louis, MO, USA) group, a LL-37 group, a Tα1 group, and a LTAa group. For the first 3 days, CTX (80 mg/kg mouse weight) was administered intraperitoneally once daily to establish the immunosuppressed animal model. From days 4 to 10 (7 days), peptides (10 mg/kg mouse weight) were administered intraperitoneally each day. The CTX group was only treated with CTX, and the control group was given sterile saline. The dose volume was 200 μL. Twenty-four hours after the last dose, the mice were killed and their tissues and blood collected for analysis. The body weight index was calculated in the following way:(2) Index (%)=final body weight-[…] body weight/initial body weight ×100% Serum was obtained from blood by centrifugation at 1000 × g for 20 min. Levels of TNF-α, IL-6, IL-1β, IgG, IgA, and IgM in the serum were detected by ELISA.
# [3] = biological target: T1, recombinant TLR4/MD2 (Homo sapiens, UniProt O00206+Q9Y6Y9); experiment: Surface plasmon resonance binding to immobilized TLR4/MD2; details: SPR, ProteOn XPR36, GLH chip, 25 °C, PBS 0.1% Tween 20 with 2% DMSO, 1:1 model, 0-10 μM peptide
# T1 construct: purchased R&D Systems
# T1 sequence (O00206 24-631 limits assumed, species assumed): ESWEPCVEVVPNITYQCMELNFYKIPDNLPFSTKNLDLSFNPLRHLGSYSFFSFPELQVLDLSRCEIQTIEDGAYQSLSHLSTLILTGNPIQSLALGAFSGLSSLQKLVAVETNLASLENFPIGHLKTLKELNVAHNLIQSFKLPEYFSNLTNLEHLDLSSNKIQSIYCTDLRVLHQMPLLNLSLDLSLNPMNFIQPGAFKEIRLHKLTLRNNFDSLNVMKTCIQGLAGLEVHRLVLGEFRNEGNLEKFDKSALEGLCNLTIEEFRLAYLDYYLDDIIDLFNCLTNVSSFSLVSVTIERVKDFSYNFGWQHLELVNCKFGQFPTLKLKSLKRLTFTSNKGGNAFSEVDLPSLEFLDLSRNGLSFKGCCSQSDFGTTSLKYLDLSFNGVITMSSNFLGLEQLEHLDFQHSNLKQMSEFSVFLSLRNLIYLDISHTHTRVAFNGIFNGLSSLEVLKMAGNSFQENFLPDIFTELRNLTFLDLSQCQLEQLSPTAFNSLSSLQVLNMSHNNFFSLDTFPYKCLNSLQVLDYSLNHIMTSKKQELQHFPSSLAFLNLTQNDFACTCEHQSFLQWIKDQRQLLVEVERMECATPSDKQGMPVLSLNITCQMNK
# T1 sequence (Q9Y6Y9 19-160, species assumed): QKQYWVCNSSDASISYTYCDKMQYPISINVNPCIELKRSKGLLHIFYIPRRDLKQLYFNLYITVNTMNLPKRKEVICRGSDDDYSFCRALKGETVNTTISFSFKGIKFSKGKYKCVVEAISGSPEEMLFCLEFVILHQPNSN
# Method: Surface plasmon resonance (SPR) experiments were performed using a ProteOn^TM XPR36 instrument (Bio-Rad, Hercules, CA, USA) with a ProteOn^TM GLH sensor chip (Bio-Rad) at 25 °C. PBS supplemented with 0.1% Tween 20 (containing 2% dimethyl sulfoxide) was used as a running buffer and was continuously passed into the reaction chamber at 30 μL/min. A SPR sensing chip with recombinant TLR4/MD2 (R&D Systems, Minneapolis, MN, USA) that was immobilized by amino coupling was used to capture the peptide, according to the manufacturer’s protocol. […] The running buffer was injected into the empty channel as a reference. Sensor chip regeneration and desorption were achieved by injecting 10 mM Gly-HCl buffer (pH 2.5) before the next round of analyses. The experimental data were analyzed by ProteOn Manager^TM software (version 2.0). Binding curves were processed for the initial injection alignment and baseline, and a reference-subtracted sensorgram was globally fitted to the curves to describe a homogeneous 1:1 model. Data from the protein surfaces were grouped together to fit the kinetic rate constants (Ka and Kd). The equilibrium dissociation constant (KD) for the peptide-TLR4/MD2 interaction was calculated using the following equation:(5) KD=Kd/Ka
# [4] = tested on: peritoneal macrophages; experiment: Peritoneal macrophage phagocytosis (neutral red uptake) in CTX-immunosuppressed mice; assay type: in vivo, mouse; details: peritoneal macrophages of mice, OD 540 nm, CTX 80 mg/kg ip days 1-3, peptide 10 mg/kg ip days 4-10, control group 55.67%, n = 12
# Method: Peritoneal macrophages were aseptically obtained from the different groups of mice by peritoneal lavage with 5 mL ice-cold phosphate-buffered saline (PBS). The peritoneal macrophages were further isolated by incubating peritoneal exudate cells at 37 °C in a moist atmosphere (5% CO2, 95% air) for 3 h to allow the cells to adhere. The adherent cells were washed twice and collected as peritoneal macrophages.
# The phagocytic capacity of the peritoneal macrophages was measured by the neutral red uptake method [52]. […] The OD was measured using a microplate reader at 540 nm. The phagocytic rate was calculated in the following way:(4) hagocytic rate (%)=OD540(sample)/OD540(control) ×100% where OD540 (sample) is the absorbance at 540 nm by peptide-treated cells and OD540 (control) is the absorbance at 540 nm by the cells without peptides treated.
# [5] = biological target: T2, TLR4/MD-2 (Mus musculus, UniProt Q9JHF9+Q9QUK6); experiment: Cytokine production in RAW264.7 cells with or without TLR4/MD-2 mAb pretreatment; assay type: cell-based; details: then 10 μg/mL peptide 24 h, ELISA, n = 3
# T2 construct: endogenous in cells; host or cells: RAW264.7
# T2 sequence (Q9QUK6 26-835): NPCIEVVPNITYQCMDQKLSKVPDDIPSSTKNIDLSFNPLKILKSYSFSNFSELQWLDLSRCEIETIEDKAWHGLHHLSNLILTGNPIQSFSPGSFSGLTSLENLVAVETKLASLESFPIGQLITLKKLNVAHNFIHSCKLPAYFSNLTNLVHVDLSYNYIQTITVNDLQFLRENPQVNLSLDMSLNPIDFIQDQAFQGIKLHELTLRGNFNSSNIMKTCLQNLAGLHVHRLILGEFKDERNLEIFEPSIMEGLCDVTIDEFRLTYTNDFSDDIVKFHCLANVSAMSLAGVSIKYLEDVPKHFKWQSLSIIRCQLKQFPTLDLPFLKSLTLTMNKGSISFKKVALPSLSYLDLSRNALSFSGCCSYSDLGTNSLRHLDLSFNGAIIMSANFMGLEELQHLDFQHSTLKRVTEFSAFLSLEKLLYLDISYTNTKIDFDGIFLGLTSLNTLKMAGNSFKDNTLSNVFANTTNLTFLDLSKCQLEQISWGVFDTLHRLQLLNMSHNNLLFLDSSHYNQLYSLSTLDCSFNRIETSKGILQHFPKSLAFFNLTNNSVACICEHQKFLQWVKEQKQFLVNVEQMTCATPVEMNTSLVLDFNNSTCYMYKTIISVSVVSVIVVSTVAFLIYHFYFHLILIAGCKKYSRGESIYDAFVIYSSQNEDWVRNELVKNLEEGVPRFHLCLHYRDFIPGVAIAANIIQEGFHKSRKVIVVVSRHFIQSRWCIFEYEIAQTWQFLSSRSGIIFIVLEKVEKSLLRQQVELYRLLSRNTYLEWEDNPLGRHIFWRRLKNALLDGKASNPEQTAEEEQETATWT
# T2 sequence (Q9JHF9 19-160): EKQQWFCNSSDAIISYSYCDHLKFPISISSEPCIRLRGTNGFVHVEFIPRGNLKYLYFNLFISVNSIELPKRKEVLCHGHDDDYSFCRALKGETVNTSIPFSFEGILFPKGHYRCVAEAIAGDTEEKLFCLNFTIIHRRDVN
# Method: RAW264.7 cells were treated with PBS or an anti-mouse mAbTLR4/MD-2 complex (MTS510 Ab) (eBioscience, San Diego, CA, USA) at 37 °C for 1 h, and RAW264.7 cells were treated with or without 10 μg/mL peptides for 24 h at 37 °C in a moist atmosphere (5% CO2, 95% air). Levels of TNF-α, IL-6, and IL-1β in the culture supernatant were detected by ELISA.
# [6] = Ex vivo stability in plasma; assay type: in vitro ADME; details: rat plasma, in vitro, 37 °C, HPLC, log-linear regression; mean ± SEM of three biological replicates; read-out: t1/2, half-life in plasma (converted)
# Method: The samples were collected into pre-chilled tubes containing 1 mL of acidic acetone (hydrochloric acid/acetone/H2O, 1:40:5, by volume). Subsequently, the mixture was centrifuged at 2 × 10^4 rpm at 4 °C for 20 min. The precipitates were dried in vacuo. The dried precipitates were dissolved in 0.5 mL of 1 M acetic acid. The peptide analysis was carried out according to the protocol for the study of Tα1 using HPLC [51]. The half-lives of the target peptides were calculated by a logarithm-linear regression analysis of the peptide concentrations.
sequence,measurement,setting,value
IGKEFKRIVQRIKDFLRNLVPRTEKEKKEVVE [LTAa],CD4+:CD8+ T lymphocyte ratio,[1],higher
same,"serum TNF-α, IL-6 and IL-1β levels",[2],"significantly higher TNF-α, IL-6, and IL-1β concentrations than those in the Tα1- or LL-37-treated groups"
same,Ka for binding to TLR4/MD2,[3],7.38e+09 M⁻¹ s⁻¹
same,Kd (rate constant) for binding to TLR4/MD2,[3],0.362 s⁻¹
same,macrophage phagocytic rate,[4],significantly higher phagocytic rates than those in the Tα1- or LL-37-treated groups
same,"TNF-α, IL-6 and IL-1β production, PBS pretreatment","[5]; RAW264.7, PBS 1 h",significant increase
same,"TNF-α, IL-6 and IL-1β production induced by LTAa after TLR4/MD-2 mAb pretreatment","[5]; RAW264.7, TLR4/MD-2 mAb (MTS510 Ab) 1 h",significantly inhibited
same,half-life,[6],4.2 ± 1.13 h
